Experiment [1] relates to LoVo cells (unmutated EGFR wild type). Nature of the experiment: LoVo growth inhibition assay (cell proliferation), Method A. Format: cell-based. As to conditions: Homo sapiens, cellular proliferation, 72 h, CellTiter-Glo (Table 1), read-out: LoVo IC50 (nM) WT. Here is the method: (§1) Cell Proliferation Assays—Method A
LoVo Growth Inhibition Assay (Cell Proliferation)
The rest of the procedure was carried out in the same manner as described for the H1975 cells.

For the next experiment, the target named is EGFR_T790M/L858R (Homo sapiens, UniProt P00533, L858R/T790M). Nature of the experiment: Enzyme assay, IC50 for double-mutant EGFR (EGFR_T790M/L858R) (Caliper). Format: biochemical. To be noted: enzyme phosphorylation assay; read-out: EGFR_L858R/T790 IC50. The protocol: (§2) Using the same technique as described in the previous paragraph, various mutated forms of the epidermal growth factor receptor may be isolated from appropriate cell lines which contain them. For example, the EGFR de1746-750 mutant protein may be extracted from PC-9 cells, and the L858R/T790M double mutant EGFR protein may be isolated from H1975 cells.
EGFR_T790M/L858R, sequence (P00533 25-1210 T790M/L858R): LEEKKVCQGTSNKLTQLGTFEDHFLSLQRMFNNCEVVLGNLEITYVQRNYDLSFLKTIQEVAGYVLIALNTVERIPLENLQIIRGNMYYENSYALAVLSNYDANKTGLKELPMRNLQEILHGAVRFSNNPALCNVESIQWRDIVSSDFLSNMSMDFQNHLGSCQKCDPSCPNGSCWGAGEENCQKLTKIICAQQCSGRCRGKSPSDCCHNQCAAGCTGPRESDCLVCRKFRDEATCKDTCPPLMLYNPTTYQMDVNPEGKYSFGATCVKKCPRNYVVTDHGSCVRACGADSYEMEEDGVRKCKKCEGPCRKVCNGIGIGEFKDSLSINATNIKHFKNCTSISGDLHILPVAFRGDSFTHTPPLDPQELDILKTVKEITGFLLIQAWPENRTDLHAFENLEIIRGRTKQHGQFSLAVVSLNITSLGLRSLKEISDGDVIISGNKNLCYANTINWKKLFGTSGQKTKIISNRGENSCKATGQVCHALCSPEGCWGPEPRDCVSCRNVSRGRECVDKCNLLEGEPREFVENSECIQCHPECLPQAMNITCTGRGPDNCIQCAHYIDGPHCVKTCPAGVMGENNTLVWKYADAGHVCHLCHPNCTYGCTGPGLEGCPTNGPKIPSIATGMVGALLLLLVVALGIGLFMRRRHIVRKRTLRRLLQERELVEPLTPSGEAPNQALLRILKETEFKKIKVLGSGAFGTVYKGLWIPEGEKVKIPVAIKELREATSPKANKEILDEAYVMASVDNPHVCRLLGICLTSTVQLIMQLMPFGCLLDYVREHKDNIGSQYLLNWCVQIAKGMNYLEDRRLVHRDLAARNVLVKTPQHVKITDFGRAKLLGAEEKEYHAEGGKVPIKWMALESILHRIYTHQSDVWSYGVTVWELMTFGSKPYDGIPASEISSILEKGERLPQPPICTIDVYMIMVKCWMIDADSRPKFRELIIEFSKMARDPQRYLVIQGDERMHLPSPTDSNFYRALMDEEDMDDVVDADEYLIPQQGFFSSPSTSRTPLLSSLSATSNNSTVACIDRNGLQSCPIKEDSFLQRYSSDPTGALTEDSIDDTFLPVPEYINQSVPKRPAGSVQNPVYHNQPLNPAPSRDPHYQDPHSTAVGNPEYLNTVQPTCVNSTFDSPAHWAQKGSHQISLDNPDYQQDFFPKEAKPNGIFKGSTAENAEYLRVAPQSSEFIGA
Determination of IC50 Values for Double-Mutant EGFR (EGFR_T790M/L858R)
Dilute all compounds to 500 μM stock solutions in 100% DMSO and make a serial of 4-fold dilution for 10 does. “Max” and “Min” control contain 100% DMSO. “Max” stands for […], “Min” stands for low control without compounds. Transfer 10 μl of compounds to 90 μl of 1× kinase base buffer to make intermediate dilution. […] Incubate at RT for 1 hr and 25 μl stop buffer to end up reaction. Collect conversion data from Caliper and conversion data from Caliper program. Fit the data in XLfit to obtain IC50 values.

The next experiment deals with T1, Wt EGFR (Homo sapiens, UniProt P00533).
T1 construct: isolated from A431 human epidermoid carcinoma cells which overexpress EGF receptor; endogenous in cells; host or cells: A431 human epidermoid carcinoma cells (receptor purified on wheat germ agglutinin sepharose)
T1 sequence (P00533 25-1210): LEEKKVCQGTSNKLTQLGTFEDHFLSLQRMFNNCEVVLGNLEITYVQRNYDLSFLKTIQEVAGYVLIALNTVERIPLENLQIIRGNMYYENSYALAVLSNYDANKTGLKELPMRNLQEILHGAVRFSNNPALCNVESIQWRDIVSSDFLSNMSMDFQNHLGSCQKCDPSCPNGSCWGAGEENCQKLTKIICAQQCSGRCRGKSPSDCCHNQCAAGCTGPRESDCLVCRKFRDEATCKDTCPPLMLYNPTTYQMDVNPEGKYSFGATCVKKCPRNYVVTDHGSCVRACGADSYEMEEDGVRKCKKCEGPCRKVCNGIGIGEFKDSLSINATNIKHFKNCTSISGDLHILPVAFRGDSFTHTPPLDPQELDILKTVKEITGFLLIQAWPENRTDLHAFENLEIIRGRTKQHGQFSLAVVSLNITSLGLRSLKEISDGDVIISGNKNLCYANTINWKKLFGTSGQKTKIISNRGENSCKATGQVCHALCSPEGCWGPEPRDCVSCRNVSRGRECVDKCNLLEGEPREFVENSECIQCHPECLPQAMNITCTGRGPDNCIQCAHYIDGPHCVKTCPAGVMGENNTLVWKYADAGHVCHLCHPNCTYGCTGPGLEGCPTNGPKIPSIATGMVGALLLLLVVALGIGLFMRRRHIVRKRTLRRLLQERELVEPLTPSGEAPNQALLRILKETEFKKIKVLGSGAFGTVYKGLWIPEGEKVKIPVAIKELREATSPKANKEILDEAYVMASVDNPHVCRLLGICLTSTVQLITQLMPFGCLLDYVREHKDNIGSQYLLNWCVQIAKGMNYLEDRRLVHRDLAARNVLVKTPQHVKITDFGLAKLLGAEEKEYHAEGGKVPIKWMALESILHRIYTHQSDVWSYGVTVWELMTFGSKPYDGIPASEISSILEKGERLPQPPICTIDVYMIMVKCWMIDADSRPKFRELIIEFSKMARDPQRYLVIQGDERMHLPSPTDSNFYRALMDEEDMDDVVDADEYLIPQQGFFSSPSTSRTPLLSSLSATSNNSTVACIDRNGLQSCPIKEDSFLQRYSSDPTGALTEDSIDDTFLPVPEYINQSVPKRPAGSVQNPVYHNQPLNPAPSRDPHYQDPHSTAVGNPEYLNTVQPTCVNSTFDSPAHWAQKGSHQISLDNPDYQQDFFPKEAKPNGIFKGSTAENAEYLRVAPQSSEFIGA
As to the kind of experiment: Enzyme assay, IC50 for wt EGFR (Caliper). Format: biochemical. As to conditions: enzyme phosphorylation assay; read-out: EGFR_WT IC50. The protocol:
Purification of Epidermal Growth Factor Receptor Tyrosine Kinase Human EGF receptor tyrosine kinase was isolated from A431 human epidermoid carcinoma cells which overexpress EGF receptor by the following methods. Cells were grown in roller bottles in 50% Delbuco's Modified Eagle and 50% HAM F-12 nutrient media (Gibco) containing 10% fetal calf serum. Approximately 10^9 cells were lysed in two volumes of buffer containing 20 mM 2-(4N-[2-hydroxyethyl]piperazin-1-yl)ethanesulfonic acid (hepes), pH 7.4, 5 mM ethylene glycol bis(2-aminoethyl ether) N,N,N′,N′-tetraacetic acid, 1% Triton X-1OO, 10% glycerol. 0.1 mM sodium orthovanadate, 5 mM sodium fluoride, 4 mM pyrophosphate, 4 mM benzamide, 1 mM dithiothreitol, 80 μg/mL aprotinin, 40 μg/mL leupeptin and 1 mM phenylmethylsulfonyl fluoride. After centrifugation at 25,000×g for 10 minutes, the supernatant was equilibrated for 2 h at […], with 10 mL of wheat germ agglutinin sepharose that was previously equilibrated with 50 mM Hepes, 10% glycerol, 0.1% Triton X-100 and 150 mM NaCl, pH 7.5, (equilibration buffer). Contaminating proteins were washed from the resin with 1M NaCl in equilibration buffer, and the enzyme was eluted with 0.5M N-acetyl-1-D-glucosamine in equilibration buffer, followed by 1 mM urea. The enzyme was eluted with 0.1 mg/ml EGF.
Determination of IC50 Values for Wt EGFR
Dilute all compounds to 500 μM stock solutions in 100% DMSO and make a serial of 4-fold dilution for 10 does. “Max” and “Min” control contain 100% DMSO. “Max” stands for […], “Min” stands for low control without compounds. Transfer 10 μl of compounds to 90 μl of Ix kinase base buffer to make intermediate dilution. Transfer 5 μl of intermediate dilution compounds to the 384-well assay plate, then 10 μl 2.5× enzyme buffer containing (20 nM EGFR, 5 mM DTT, 1× kinase base buffer) were added to assay plate. […] Incubate at RT for 1 hr and 25 μl stop buffer to end up reaction. Collect conversion data from Caliper and conversion data from Caliper program. Fit the data in XLfit to obtain IC50 values.

Experiment [2] deals with NCI-H1975 cells (EGFR L858R/T790 double mutant). As to the kind of experiment: H1975 inhibition assay (cell proliferation), Method A. Format: cell-based. To be noted: Homo sapiens; cellular proliferation, NCI-H1975 cells, 72 h, CellTiter-Glo (Table 1); read-out: NCI-H1975 IC50 (nM) DM. The protocol: as §1
H1975 Inhibition Assay (Cell Proliferation)
(§3) The final concentration was 4,000 cells/well. Add medium only as low control.
(§4) Day-2: Test compounds were dissolved in DMSO at 0.2 mM (200×).
(§5) Day-5: After 72 hours incubation, remove the plates from incubator and equilibrate at room temperature for 15 minutes. Incubate the CellTiter Glo reagents (Promega, G9243) at 37° C. before the experiment. The buffer was equilibrated to room temperature and used to dissolve the substrate. To determine the cell viability, add 30 μL of CellTiter-Glo reagent into each well to be detected. Then shake the plates at room temperature for 10 min and followed by plate read on Envision (PerkinElmer).
(§6) For estimation of IC50, the luminescence readout are transformed to % Inhibition by applying the following equation: The IC50 was then
(§7) [formula] calculated by fitting in XLFit to a four parameters logistic curve.

The target of a further experiment is EGFR_d746-750 (Homo sapiens, UniProt P00533, DEL746-750). Nature of the experiment: Enzyme assay, IC50 for single mutant EGFR_d746-750 (Caliper). Format: biochemical. To be noted: enzyme phosphorylation assay. Here is the method:
as §2
Determination of IC50 Values for Single Mutant EGFR_d746-750
Dilute all compounds to 500 μM stock solutions in 100% DMSO and make a serial of 4-fold dilution for 10 doses. “Max” and “Min” control contain 100% DMSO. “Max” stands for […], “Min” stands for low control without compounds. Transfer 10 μl of compounds to 90 μl of 1× kinase base buffer to make intermediate dilution. […] Incubate at RT for 1 hr and 25 μl stop buffer to end up reaction. Collect conversion data from Caliper and conversion data from Caliper program. Fit the data in XLfit to obtain IC50 values.

Experiment [3] concerns PC9 cells (EGFR d746-750 single mutant). As to the kind of experiment: PC-9 growth inhibition assay (cell proliferation), Method A. Format: cell-based, human. To be noted: Homo sapiens, PC-9; cellular proliferation, PC9 cells, 72 h, CellTiter-Glo (Table 1); read-out: PC9 IC50 (nM) SM. The protocol: as §1, §3, §4, §5, §6, §7
PC-9 Growth Inhibition Assay (Cell Proliferation)
The inhibition assay for PC-9 cells was processed in the same manner as described for the H1975 cells.

pIC50: −log10 of the molar value.

EGFR_d746-750, sequence (P00533 with tags, fused parts or gaps DEL746-750): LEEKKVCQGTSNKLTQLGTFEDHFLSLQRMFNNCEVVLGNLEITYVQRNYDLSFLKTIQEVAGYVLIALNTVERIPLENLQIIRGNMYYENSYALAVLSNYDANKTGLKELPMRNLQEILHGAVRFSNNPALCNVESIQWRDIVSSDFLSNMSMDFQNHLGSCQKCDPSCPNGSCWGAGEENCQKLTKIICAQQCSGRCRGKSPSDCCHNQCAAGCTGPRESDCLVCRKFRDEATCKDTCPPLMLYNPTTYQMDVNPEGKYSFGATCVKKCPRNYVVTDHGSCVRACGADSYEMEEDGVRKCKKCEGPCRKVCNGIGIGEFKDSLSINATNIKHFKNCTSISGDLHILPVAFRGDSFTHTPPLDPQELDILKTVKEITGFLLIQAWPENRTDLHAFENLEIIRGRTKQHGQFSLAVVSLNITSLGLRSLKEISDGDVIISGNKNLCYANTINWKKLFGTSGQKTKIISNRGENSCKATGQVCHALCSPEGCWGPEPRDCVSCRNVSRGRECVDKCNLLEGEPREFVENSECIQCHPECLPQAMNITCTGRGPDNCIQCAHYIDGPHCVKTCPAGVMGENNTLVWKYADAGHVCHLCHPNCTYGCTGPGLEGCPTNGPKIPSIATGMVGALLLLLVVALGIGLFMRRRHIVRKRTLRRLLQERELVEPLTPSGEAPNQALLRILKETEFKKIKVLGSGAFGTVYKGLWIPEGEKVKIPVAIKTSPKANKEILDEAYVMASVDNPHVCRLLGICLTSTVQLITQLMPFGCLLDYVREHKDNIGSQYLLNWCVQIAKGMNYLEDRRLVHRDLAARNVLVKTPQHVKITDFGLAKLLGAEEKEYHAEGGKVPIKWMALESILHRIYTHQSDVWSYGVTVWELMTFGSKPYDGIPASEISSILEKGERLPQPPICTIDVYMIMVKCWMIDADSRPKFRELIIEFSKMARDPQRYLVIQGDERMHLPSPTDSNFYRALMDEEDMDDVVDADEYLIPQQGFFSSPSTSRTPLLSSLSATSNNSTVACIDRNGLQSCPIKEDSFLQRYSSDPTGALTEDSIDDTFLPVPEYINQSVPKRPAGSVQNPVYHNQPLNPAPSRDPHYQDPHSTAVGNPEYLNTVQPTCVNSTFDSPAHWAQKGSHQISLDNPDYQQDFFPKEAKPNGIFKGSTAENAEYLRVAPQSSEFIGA

As to `C=CC(=O)Nc1cc(Nc2nccc(-n3cc(C(N)=O)c4ccccc43)n2)c(OC)cc1N(C)CCN(C)C` [Example 7, N-(2-(N-(2-(N,N-Dimethylamino)ethyl)-N-methylamino)-4-methoxy-5-(4-(3-carboxamidoindol-1-yl)pyrimidin-2-ylamino)phenyl) propenamide], the figures for the half-inhibitory concentration (IC50) in experiment [1], in experiment [2] and in experiment [3] were 2630 nM, 1.7 nM and 1.6 nM, respectively. For the same compound, the pIC50 on EGFR_T790M/L858R is 8.92; on Wt EGFR it was 8.96; against EGFR_d746-750, 9.07.
As for `C=CC(=O)Nc1cc(Nc2nccc(-n3cc(CO)c4ccccc43)n2)c(OC)cc1N(C)CCN(C)C` [Example 8, N-(2-(N-(2-(N,N-Dimethylamino)ethyl)-N-methylamino)-4-methoxy-5-(4-(3-(hydroxymethyl)indol-1-yl)pyrimidin-2-ylamino)phenyl) propenamide], the IC50 turned out to be 6650 nM in experiment [1], 2.9 nM in experiment [2] and 3.5 nM in experiment [3]. Also, the pIC50 at EGFR_T790M/L858R is 8.74; on Wt EGFR, 8.68; at EGFR_d746-750, 8.92.
`C=CC(=O)Nc1cc(Nc2nccc(-n3cc(S(C)(=O)=O)c4ccccc43)n2)c(OC)cc1N(C)CCN(C)C` [Example 9, N-(2-(N-(2-(N,N-Dimethylamino)ethyl)-N-methylamino)-4-methoxy-5-(4-(3-(methylsulfonyl)indol-1-yl)pyrimidin-2-ylamino)phenyl) propenamide]: the results for the IC50 in experiment [1], in experiment [2] and in experiment [3] were 5860 nM, 2.4 nM and 3.4 nM, respectively. The pIC50 is 8.89 on EGFR_T790M/L858R, 8.82 at Wt EGFR and 8.96 on EGFR_d746-750.
With `C=CC(=O)Nc1cc(Nc2nccc(-n3c(=O)[nH]c4ccccc43)n2)c(OC)cc1N(C)CCN(C)C` [Example 10, N-(2-(N-(2-(N,N-Dimethylamino)ethyl)-N-methylamino)-4-methoxy-5-(4-(2-oxo-2,3-dihydrobenzimidazol-1-yl)pyrimidin-2-ylamino)phenyl) propenamide], the half-maximal inhibitory concentration (IC50) in experiment [1] is 12000 nM; in experiment [2] it was 1.5 nM; in experiment [3] it was 2.2 nM. Further, the pIC50 is 8.92 at EGFR_T790M/L858R, 8.89 on Wt EGFR and 9.04 against EGFR_d746-750.
For `C=CC(=O)Nc1cc(Nc2nccc(-c3c[nH]c4c(C)cccc34)n2)c(OC)cc1N(C)CCN(C)C` [Example 11, N-(2-(N-(2-(N,N-Dimethylamino)ethyl)-N-methylamino)-4-methoxy-5-(4-(7-methylindol-3-yl)pyrimidin-2-ylamino)phenyl) propenamide], the IC50 worked out at 4730 nM in experiment [1], 2.3 nM in experiment [2] and 2.9 nM in experiment [3]. The pIC50 on EGFR_T790M/L858R is 8.89; at Wt EGFR, 8.82; against EGFR_d746-750 it was 9.00.
Consider `C=CC(=O)Nc1cc(Nc2nccc(-c3c[nH]c4c(C#N)cccc34)n2)c(OC)cc1N(C)CCN(C)C` [Example 12, N-(2-(N-(2-(N,N-Dimethylamino)ethyl)-N-methylamino)-4-methoxy-5-(4-(7-cyanoindol-3-yl)pyrimidin-2-ylamino)phenyl) propenamide], for which the IC50 in experiment [1] stood at 2560 nM; in experiment [2] it was 3.5 nM; in experiment [3] it was 5.2 nM. Also, the pIC50 at EGFR_T790M/L858R is 8.92; on Wt EGFR, 8.82; against EGFR_d746-750, 8.96.
On to `C=CC(=O)Nc1cc(Nc2nccc(N3CCc4ccccc43)n2)c(OC)cc1N(C)CCN(C)C` [Example 13, N-(2-(N-(2-(N,N-Dimethylamino)ethyl)-N-methylamino)-4-methoxy-5-(4-(2,3-dihydroindol-1-yl)pyrimidin-2-ylamino)phenyl) propenamide], for which the IC50 came to 5810 nM in experiment [1], 5.6 nM in experiment [2] and 9.9 nM in experiment [3]. The pIC50 at EGFR_T790M/L858R is 8.82; at Wt EGFR, 8.17; at EGFR_d746-750, 8.77.
`C=CC(=O)Nc1cc(Nc2nccc(-c3c(C)[nH]c4ccccc34)n2)c(OC)cc1N(C)CCN(C)C` [Example 14, N-(2-(N-(2-(N,N-Dimethylamino)ethyl)-N-methylamino)-4-methoxy-5-(4-(2-methylindol-3-yl)pyrimidin-2-ylamino)phenyl) propenamide]: the IC50 stood at 2980 nM in experiment [1], 3.7 nM in experiment [2] and 6.1 nM in experiment [3]. The pIC50 was 8.74 at EGFR_T790M/L858R, 8.30 at Wt EGFR and 9.00 on EGFR_d746-750.
With `C=CC(=O)Nc1cc(Nc2nccc(-c3n[nH]c4ccccc34)n2)c(OC)cc1N(C)CCN(C)C` [Example 15, N-(2-(N-(2-(N,N-Dimethylamino)ethyl)-N-methylamino)-4-methoxy-5-(4-(indazol-3-yl)pyrimidin-2-ylamino)phenyl) propenamide], the 50% inhibitory concentration (IC50) in experiment [1] turned out to be 13500 nM; in experiment [2] it was 2.9 nM; in experiment [3], 3.3 nM. The values for the pIC50 at EGFR_T790M/L858R, on Wt EGFR and against EGFR_d746-750 were 8.82, 8.72 and 8.96, respectively.

For the origin of these results see US10435388B2, “Selective inhibitors of clinically important mutants of the EGFR tyrosine kinase” (CS PHARMATECH LIMITED, priority 2016, dated 2019).
